Experimental data taken from patent publication US20070122830A1, “Prohibitin-directed diagnostics and therapeutics for cancer and chemotherapeutic drug resistance” (Aurelium BioPharma Inc., priority 2005, published 2007).

Test system: MCF-7/ADR xenografts
Experiment: Mammary adenocarcinoma xenografts in nude mice, prohibitin siRNA plus chemotherapy
Type: in vivo
Description: (§1) In further studies, the efficacy of a prohibitin-targeted therapeutic in treating mammary adenocarcinoma cells (MCF-7/AR) is assessed. Briefly, male […] nude mice 5 to 7 weeks old, weighing 18 g to 22 g, are used for the MCF-7/ADR xenografts. Mice receive a subcutaneous (s.c.) injection of the cells using 5×10^5 cells/inoculation under the shoulder. […] The animal's weight is measured every 4 days. Tumor growth starting on the first day of treatment is measured and the volume of the xenograft is monitored every 4 days. The mice are anaesthetized and sacrificed when the mean tumor weight is over 1 g in the control group. Tumor tissue is excised from the mice and its weight is measured. Tumor weights from mice treated with the prohibitin siRNA and chemotherapeutic drugs are compared to tumor weights from mice treated with control siRNA and chemotherapeutic drugs. Cell counts are compared. All experiments are performed in triplicate.
as §1, with “treating a” for “treating”, “(MCF-7)” for “(MCF-7/AR)”, “an s.c.” for “a subcutaneous (s.c.)”, “drugs.” for “drugs. Cell counts are compared. All experiments are performed in triplicate.”
In further studies, the efficacy of a prohibitin-targeted therapeutic in treating a mammary adenocarcinoma cells (MCF-7) is assessed. Briefly, male […] nude mice 5 to 7 weeks old, weighing 18 g to 22 g, are used for the MCF-7/ADR xenografts. Mice receive an s.c. injection of the cells using […] cells/inoculation under the shoulder.
Liposome formulations are produced as described previously (Shi et al. (2000) Proc. Natl. Acad. Sci. USA. 97(13): 7567-7572). Briefly, POPC ([…]), DDAB (0.2 μmol), DSPE-PEG 2000 (0.6 μmol), and DSPE-PEG 2000-maleimide (30 nmol) are dissolved in chloroform/methanol (2:1, vol:vol) […] a brief period of evaporation. The lipids are dispersed in 1 ml 0.05 M Tris-HCl buffer, pH 8.0, and are sonicated for 10 min. Prohibitin siRNA is added to the lipids. The liposome/siRNA dispersion is evaporated to a final concentration of 200 mM at a volume of 100 μl. The dispersion is frozen in ethanol/dry ice for 4 to 5 min. The dispersion is then thawed at 40° C. for 1 min. to 2 min., and this freeze-thaw cycle is repeated 10 times. The liposome dispersion is diluted to a lipid concentration of 40 mM, is followed by extrusion 10 times each through two stacks each of 400 nm, 200 nm, 100 nm, and 50 nm pore size polycarbonate membranes, by using a hand held extruder (Avestin, Ottawa). The mean vesicle diameters are determined by quasielastic light scattering using a Microtrac Ultrafine Particle Analyzer (Leeds-Northrup, St. Petersburg, Fla.).
The animal's weight is measured every 4 days. Tumor growth starting on the first day of treatment is measured and the volume of the xenograft is monitored every 4 days. The mice are anaesthetized and sacrificed when the mean tumor weight is over 1 g in the control group. Tumor tissue is excised from the mice and its weight is measured. Tumor weights from mice treated with the prohibitin siRNA and chemotherapeutic drugs are compared to tumor weights from mice treated with control siRNA and chemotherapeutic drugs.
In further studies, the efficacy of a prohibitin-targeted therapeutic in treating a mammary adenocarcinoma cells (MCF-7) is assessed. […]

[1] = Example 10, siRNA/liposome formulation
[2] = Example 11, siRNA/immunoliposome formulation

Q: “prohibitin siRNA: siRNA duplex to human prohibitin mRNA nt 425-443; sense 5′-GGAAGUGGUCUGUCUGUUAtt-3′, antisense 5′-UAACAGACAGACCACUUCCtt-3′ (sense GGAAGUGGUCUGUCUGUUATT; antisense UAACAGACAGACCACUUCCTT; chemistry not given here)” was tested. Which “total cell numbers of tumors vs control siRNA” value (Example 8, MCF-7/AR cells) did it give?
A: lower

Q: And the “tumor weight vs control siRNA” value (Example 8, MCF-7/AR cells)?
A: smaller tumors by weight

Q: And the “total cell number in tumors vs control siRNA” value (Example 9, MCF-7)?
A: lower

Q: And the “tumor weight vs control siRNA” value (Example 9, MCF-7)?
A: smaller tumors by weight

Q: And the “total cell number in tumors vs control siRNA” value [1]?
A: lower

Q: What about the “tumor weight vs control siRNA” value [1] of the same substance?
A: smaller tumors by weight

Q: What about the “total cell number in tumors vs control siRNA” value [2] of the same substance?
A: lower

Q: And the “tumor weight vs control siRNA” value [2]?
A: smaller tumors by weight
